Legend:
Test in all cases: radiometric filter-binding kinase assay, Kinase HotSpot
Settings in all cases: compound 0.5 µM; ATP 10 µM
STK25 (human) = STK25 (human) (UniProt O00506)
CAMKK2 (human) = CAMKK2 (human) (UniProt Q96RR4)
STK39 (human) = STK39 (human) (UniProt Q9UEW8)
MARK1 (human) = MARK1 (human) (UniProt Q9P0L2)
FYN (human) = FYN (human) (UniProt P06241)
ROCK1 (human) = ROCK1 (human) (UniProt Q13464)
NEK7 (human) = NEK7 (human) (UniProt Q8TDX7)
GSK3A (human) = GSK3A (human) (UniProt P49840)
MAPKAPK5 (human) = MAPKAPK5 (human) (UniProt Q8IW41)
MAPK1 (human) = MAPK1 (human) (UniProt P28482)
MAPKAPK3 (human) = MAPKAPK3 (human) (UniProt Q16644)
EPHA5 (human) = EPHA5 (human) (UniProt P54756)
STK3 (human) = STK3 (human) (UniProt Q13188)
PDGFRA (human) = PDGFRA (human) (UniProt P16234)
RPS6KA4 KD2 (human) = RPS6KA4 KD2 (human) (UniProt O75676)
EPHA7 (human) = EPHA7 (human) (UniProt Q15375)
CAMKK1 (human) = CAMKK1 (human) (UniProt Q8N5S9)
AURKA (human) = AURKA (human) (UniProt O14965)
MST1R (human) = MST1R (human) (UniProt Q04912)
MAP3K2 (human) = MAP3K2 (human) (UniProt Q9Y2U5)
CSF1R (human) = CSF1R (human) (UniProt P07333)
PKN1 (human) = PKN1 (human) (UniProt Q16512)
PDPK1 (human) = PDPK1 (human) (UniProt O15530)
MUSK (human) = MUSK (human) (UniProt O15146)
LIMK1 (human) = LIMK1 (human) (UniProt P53667)
AKT2 (human) = AKT2 (human) (UniProt P31751)
GSK3B (human) = GSK3B (human) (UniProt P49841)
EPHA3 (human) = EPHA3 (human) (UniProt P29320)
GSG2 (human) = GSG2 (human) (UniProt Q8TF76)
HIPK3 (human) = HIPK3 (human) (UniProt Q9H422)
SIK2 (human) = SIK2 (human) (UniProt Q9H0K1)
CAMK1G (human) = CAMK1G (human) (UniProt Q96NX5)
ADRBK1 (human) = ADRBK1 (human) (UniProt P25098)
YES1 (human) = YES1 (human) (UniProt P07947)
STK4 (human) = STK4 (human) (UniProt Q13043)
FLT3 (human) = FLT3 (human) (UniProt P36888)
PAK3 (human) = PAK3 (human) (UniProt O75914)
NEK9 (human) = NEK9 (human) (UniProt Q8TD19)
ULK3 (human) = ULK3 (human) (UniProt Q6PHR2)
MAP3K7 TAB1 (human) = MAP3K7 TAB1 (human) (UniProt O43318+Q15750)
CDK5 CDK5R1 p25 (human) = CDK5 CDK5R1 p25 (human) (UniProt Q00535+Q15078)

Chain of SIK2 (human) (Q9H0K1 whole entry, looked up): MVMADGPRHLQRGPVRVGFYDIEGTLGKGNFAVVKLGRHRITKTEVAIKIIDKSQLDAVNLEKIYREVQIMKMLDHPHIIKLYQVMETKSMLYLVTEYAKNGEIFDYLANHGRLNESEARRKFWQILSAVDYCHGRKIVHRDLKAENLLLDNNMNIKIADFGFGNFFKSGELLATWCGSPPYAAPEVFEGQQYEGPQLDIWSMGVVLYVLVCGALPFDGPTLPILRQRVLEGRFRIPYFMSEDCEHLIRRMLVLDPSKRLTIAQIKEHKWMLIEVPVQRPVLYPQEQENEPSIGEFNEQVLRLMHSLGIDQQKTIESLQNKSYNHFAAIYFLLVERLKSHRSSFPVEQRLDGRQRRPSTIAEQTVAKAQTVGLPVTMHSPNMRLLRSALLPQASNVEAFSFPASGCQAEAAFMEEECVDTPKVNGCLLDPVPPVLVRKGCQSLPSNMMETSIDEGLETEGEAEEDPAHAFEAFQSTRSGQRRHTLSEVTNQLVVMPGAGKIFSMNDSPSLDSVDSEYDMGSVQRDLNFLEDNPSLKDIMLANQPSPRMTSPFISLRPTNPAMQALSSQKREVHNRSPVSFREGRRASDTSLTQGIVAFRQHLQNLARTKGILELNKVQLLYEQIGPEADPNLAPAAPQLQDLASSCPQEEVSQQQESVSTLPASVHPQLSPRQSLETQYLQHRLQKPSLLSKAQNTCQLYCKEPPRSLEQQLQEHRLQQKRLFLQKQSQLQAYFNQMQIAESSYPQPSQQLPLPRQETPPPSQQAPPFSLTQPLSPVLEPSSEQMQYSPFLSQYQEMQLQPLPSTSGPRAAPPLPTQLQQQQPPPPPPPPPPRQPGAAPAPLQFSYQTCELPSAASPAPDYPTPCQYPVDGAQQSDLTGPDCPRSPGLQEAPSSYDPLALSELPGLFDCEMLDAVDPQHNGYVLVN
Chain of PKN1 (human) (Q16512 whole entry, looked up): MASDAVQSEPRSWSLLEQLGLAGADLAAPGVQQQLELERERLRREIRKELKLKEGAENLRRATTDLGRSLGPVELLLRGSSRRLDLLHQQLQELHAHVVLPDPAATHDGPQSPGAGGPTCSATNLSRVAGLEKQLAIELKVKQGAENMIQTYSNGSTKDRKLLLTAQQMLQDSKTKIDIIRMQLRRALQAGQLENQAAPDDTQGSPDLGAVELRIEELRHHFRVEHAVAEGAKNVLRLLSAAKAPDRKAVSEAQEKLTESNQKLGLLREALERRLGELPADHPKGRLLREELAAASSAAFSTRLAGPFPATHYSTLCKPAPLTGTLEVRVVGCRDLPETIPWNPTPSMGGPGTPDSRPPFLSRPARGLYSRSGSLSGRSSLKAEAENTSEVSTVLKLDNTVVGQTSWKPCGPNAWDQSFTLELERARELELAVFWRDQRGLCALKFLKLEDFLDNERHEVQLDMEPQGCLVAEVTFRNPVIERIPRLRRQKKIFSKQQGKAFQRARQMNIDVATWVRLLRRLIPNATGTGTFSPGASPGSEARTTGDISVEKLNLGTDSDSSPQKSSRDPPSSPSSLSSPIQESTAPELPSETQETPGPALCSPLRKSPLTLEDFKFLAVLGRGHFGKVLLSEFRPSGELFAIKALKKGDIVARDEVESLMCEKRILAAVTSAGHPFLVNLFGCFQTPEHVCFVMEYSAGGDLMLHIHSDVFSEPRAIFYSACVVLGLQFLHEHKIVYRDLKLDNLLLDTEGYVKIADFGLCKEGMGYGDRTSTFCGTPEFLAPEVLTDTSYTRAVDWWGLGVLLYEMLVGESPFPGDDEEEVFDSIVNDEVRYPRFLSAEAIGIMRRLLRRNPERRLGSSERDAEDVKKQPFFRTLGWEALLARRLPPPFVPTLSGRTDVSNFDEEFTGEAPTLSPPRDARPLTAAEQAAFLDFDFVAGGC
Chain of EPHA7 (human) (Q15375 whole entry, looked up): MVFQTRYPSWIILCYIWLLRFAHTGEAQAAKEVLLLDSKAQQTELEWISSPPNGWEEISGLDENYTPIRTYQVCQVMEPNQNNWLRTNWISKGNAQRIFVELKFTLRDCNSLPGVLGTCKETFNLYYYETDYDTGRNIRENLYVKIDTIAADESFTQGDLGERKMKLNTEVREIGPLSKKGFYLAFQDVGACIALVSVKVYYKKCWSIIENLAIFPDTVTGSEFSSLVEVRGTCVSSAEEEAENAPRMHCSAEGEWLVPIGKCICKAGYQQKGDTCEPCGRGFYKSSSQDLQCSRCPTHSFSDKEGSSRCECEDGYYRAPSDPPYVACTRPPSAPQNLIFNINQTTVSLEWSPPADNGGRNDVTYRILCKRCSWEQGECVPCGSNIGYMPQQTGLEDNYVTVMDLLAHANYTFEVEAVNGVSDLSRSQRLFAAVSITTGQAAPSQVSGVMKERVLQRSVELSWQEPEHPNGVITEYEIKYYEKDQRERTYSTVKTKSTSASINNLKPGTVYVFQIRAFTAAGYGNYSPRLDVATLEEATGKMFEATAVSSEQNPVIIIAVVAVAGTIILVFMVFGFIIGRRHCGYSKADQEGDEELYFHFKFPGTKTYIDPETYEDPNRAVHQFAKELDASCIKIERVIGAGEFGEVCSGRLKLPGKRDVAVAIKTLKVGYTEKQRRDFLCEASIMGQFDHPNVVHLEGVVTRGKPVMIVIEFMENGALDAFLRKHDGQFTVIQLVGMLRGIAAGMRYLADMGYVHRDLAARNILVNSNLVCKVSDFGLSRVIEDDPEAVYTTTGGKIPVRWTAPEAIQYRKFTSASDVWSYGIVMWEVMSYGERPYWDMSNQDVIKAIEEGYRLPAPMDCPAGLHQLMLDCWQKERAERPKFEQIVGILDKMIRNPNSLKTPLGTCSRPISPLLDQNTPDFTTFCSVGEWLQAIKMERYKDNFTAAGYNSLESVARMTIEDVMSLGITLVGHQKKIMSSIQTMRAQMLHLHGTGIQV
Chain of HIPK3 (human) (Q9H422 whole entry, looked up): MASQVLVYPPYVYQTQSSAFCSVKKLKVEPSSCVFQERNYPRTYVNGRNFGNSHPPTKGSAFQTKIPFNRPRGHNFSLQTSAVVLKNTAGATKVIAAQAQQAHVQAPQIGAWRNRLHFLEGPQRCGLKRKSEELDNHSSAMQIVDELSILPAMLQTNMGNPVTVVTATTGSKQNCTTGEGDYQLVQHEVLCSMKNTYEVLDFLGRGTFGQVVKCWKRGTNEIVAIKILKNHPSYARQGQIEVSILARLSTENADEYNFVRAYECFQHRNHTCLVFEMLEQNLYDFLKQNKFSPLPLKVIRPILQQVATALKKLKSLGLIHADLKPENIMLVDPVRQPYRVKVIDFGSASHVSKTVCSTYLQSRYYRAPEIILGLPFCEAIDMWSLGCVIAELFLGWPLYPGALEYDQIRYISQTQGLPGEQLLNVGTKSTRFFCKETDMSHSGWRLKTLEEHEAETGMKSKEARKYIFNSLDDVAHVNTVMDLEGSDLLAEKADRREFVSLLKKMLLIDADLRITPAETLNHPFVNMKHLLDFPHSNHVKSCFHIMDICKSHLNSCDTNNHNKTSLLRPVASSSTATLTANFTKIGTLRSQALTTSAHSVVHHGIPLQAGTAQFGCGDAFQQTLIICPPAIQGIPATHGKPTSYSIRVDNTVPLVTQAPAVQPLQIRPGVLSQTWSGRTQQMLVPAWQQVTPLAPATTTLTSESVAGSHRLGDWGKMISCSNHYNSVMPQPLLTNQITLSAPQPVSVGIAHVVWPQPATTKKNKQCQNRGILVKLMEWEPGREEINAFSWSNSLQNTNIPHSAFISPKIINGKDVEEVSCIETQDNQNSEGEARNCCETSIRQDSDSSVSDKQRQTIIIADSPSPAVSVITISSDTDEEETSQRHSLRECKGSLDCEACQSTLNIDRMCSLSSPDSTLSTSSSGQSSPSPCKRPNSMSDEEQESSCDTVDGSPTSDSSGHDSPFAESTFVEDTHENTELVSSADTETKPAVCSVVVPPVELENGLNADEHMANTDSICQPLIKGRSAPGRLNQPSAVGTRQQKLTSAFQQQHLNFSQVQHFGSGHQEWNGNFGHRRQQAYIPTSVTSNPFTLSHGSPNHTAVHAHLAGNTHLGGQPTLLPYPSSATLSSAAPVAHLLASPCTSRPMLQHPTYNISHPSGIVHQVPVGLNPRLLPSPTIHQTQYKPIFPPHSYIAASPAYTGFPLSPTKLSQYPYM
Chain of MAP3K2 (human) (Q9Y2U5 whole entry, looked up): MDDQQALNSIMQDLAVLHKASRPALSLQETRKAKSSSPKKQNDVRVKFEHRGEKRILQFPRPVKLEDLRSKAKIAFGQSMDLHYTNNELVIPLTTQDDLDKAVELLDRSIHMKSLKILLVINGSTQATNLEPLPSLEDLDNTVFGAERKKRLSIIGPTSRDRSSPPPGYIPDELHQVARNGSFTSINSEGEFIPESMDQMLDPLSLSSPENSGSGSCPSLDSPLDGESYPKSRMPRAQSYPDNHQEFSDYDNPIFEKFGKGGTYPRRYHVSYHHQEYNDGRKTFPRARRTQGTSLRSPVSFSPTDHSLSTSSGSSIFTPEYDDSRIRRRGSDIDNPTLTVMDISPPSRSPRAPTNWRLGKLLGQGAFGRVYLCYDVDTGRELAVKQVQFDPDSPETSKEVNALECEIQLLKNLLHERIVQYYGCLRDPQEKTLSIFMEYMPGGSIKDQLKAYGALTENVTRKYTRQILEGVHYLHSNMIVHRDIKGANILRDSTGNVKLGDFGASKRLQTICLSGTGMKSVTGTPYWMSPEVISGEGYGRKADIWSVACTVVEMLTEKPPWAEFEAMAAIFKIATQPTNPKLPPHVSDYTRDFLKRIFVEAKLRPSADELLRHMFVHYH
Chain of MAPKAPK3 (human) (Q16644 whole entry, looked up): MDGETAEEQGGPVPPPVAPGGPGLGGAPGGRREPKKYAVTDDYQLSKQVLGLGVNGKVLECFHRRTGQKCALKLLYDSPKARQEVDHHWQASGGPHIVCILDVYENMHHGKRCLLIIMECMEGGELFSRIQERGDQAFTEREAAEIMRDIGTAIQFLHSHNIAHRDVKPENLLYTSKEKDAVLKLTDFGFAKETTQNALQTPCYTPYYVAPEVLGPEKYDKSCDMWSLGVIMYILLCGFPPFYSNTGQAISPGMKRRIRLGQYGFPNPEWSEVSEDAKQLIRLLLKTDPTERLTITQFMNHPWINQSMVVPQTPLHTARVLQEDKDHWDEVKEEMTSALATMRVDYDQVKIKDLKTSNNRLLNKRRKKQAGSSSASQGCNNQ

Nc1ncnc2c1c(-c1ccc(Oc3ccccc3)cc1)cn2C1CCCC1
residual activity (STK25 (human)): 113%
residual activity (CAMKK2 (human)): 86.3%
residual activity (STK39 (human)): 84.8%
residual activity (MARK1 (human)): 94.1%
residual activity (FYN (human)): 3.51%
residual activity (ROCK1 (human)): 106%
residual activity (NEK7 (human)): 94.6%
residual activity (GSK3A (human)): 105%
residual activity (MAPKAPK5 (human)): 98.7%
residual activity (MAPK1 (human)): 80.7%
residual activity (MAPKAPK3 (human)): 109%
residual activity (EPHA5 (human)): 108%
residual activity (STK3 (human)): 97.7%
residual activity (PDGFRA (human)): 65%
residual activity (RPS6KA4 KD2 (human)): 105%
residual activity (EPHA7 (human)): 98.3%
residual activity (CAMKK1 (human)): 99.1%
residual activity (AURKA (human)): 76.5%
residual activity (MST1R (human)): 94%
residual activity (MAP3K2 (human)): 83.8%
residual activity (CSF1R (human)): 61.3%
residual activity (PKN1 (human)): 104%
residual activity (PDPK1 (human)): 102%
residual activity (MUSK (human)): 115%
residual activity (LIMK1 (human)): 95.7%
residual activity (AKT2 (human)): 99.7%
residual activity (GSK3B (human)): 99.2%
residual activity (EPHA3 (human)): 96.3%
residual activity (GSG2 (human)): 94.6%
residual activity (HIPK3 (human)): 116%
residual activity (SIK2 (human)): 101%
residual activity (CAMK1G (human)): 95.8%
residual activity (ADRBK1 (human)): 97.8%
residual activity (YES1 (human)): 0.657%
residual activity (STK4 (human)): 77.8%
residual activity (FLT3 (human)): 4.48%
residual activity (PAK3 (human)): 98.4%
residual activity (NEK9 (human)): 96.6%
residual activity (ULK3 (human)): 102%
residual activity (MAP3K7 TAB1 (human)): 92.3%

N#CC(C#N)=C(N)/C(C#N)=C/c1ccc(O)cc1
residual activity (STK25 (human)): 90.4%
residual activity (CAMKK2 (human)): 91.6%
residual activity (STK39 (human)): 90.3%
residual activity (MARK1 (human)): 111%
residual activity (FYN (human)): 98.4%
residual activity (ROCK1 (human)): 100%
residual activity (NEK7 (human)): 98.9%
residual activity (GSK3A (human)): 91.1%
residual activity (MAPKAPK5 (human)): 94.2%
residual activity (MAPK1 (human)): 101%
residual activity (MAPKAPK3 (human)): 99.9%
residual activity (EPHA5 (human)): 94.3%
residual activity (STK3 (human)): 95.2%
residual activity (PDGFRA (human)): 97.8%
residual activity (RPS6KA4 KD2 (human)): 99.7%
residual activity (EPHA7 (human)): 90.5%
residual activity (CAMKK1 (human)): 104%
residual activity (AURKA (human)): 89.6%
residual activity (MST1R (human)): 102%
residual activity (MAP3K2 (human)): 102%
residual activity (CSF1R (human)): 98%
residual activity (PKN1 (human)): 89%
residual activity (PDPK1 (human)): 99.4%
residual activity (MUSK (human)): 103%
residual activity (LIMK1 (human)): 89.9%
residual activity (AKT2 (human)): 92.8%
residual activity (GSK3B (human)): 89.5%
residual activity (EPHA3 (human)): 98.3%
residual activity (GSG2 (human)): 90.1%
residual activity (HIPK3 (human)): 102%
residual activity (SIK2 (human)): 87.7%
residual activity (CAMK1G (human)): 104%
residual activity (ADRBK1 (human)): 104%
residual activity (YES1 (human)): 100%
residual activity (STK4 (human)): 99.1%
residual activity (CDK5 CDK5R1 p25 (human)): 97.6%
residual activity (FLT3 (human)): 92.2%
residual activity (PAK3 (human)): 98.4%
residual activity (NEK9 (human)): 97.9%
residual activity (ULK3 (human)): 67.8%
residual activity (MAP3K7 TAB1 (human)): 94.8%
